Values after ≈ are worked out from the molar mass of the structure shown. Like-named read-outs stand apart in the source and are kept apart here.
Assays:
cytochrome bd-I = target: T1, cytochrome bd-I (Escherichia coli, UniProt P0ABJ9); assay: Oxygen reductase activity assay (Clark-type electrode) with purified cytochrome bd-I; format: biochemical, E. coli; conditions: for Rest activity in % of control activity bd-I / remaining activity at 250 µM: compound 250 µM, 200 µM ubiquinone-1, 5 mM dithiothreitol, 30 nM enzyme, RT, 100% = DMSO, mean ± S.E.M. (n=3); for remaining activity at 250 µM: read-out: Rest activity in % of control activity bd-I; for Ki: final enzyme concentration 30 nM, inhibitor concentration at 50% residual oxygen reductase activity (EC50 of DoseResp fit), read-out: Ki^app bd-I
T1 construct: made in house; host or cells: E. coli C43 (DE3) Δ bo3 (CLY)
T1 sequence (P0ABJ9 whole entry): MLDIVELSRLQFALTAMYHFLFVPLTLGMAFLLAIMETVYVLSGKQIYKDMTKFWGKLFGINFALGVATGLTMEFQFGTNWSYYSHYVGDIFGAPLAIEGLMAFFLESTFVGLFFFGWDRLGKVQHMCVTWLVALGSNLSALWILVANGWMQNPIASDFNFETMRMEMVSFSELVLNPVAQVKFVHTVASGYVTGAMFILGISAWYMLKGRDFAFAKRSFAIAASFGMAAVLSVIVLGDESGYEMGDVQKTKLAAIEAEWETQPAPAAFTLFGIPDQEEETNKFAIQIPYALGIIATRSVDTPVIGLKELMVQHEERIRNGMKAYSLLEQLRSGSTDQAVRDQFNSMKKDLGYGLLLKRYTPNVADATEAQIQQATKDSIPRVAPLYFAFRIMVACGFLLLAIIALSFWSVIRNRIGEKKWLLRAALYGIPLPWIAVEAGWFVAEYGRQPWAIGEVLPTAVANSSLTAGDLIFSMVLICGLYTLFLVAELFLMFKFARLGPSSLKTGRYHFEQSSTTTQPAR
T1 sequence (P0ABK2 whole entry, further chain): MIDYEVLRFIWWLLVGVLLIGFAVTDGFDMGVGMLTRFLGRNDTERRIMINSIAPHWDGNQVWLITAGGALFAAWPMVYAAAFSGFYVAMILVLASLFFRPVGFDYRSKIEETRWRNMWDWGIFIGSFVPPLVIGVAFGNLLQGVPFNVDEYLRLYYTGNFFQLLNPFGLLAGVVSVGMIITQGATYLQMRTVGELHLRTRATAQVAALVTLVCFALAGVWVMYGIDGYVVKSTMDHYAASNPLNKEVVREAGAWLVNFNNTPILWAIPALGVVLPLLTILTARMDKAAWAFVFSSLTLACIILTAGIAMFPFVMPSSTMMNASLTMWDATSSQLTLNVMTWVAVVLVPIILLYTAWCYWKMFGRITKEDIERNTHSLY
T1 sequence (P56100 whole entry, further chain): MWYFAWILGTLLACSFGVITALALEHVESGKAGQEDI
From the text: (§1) To determine inhibition of our test set compounds and to assess the selectivity for bd-type oxidases we tested the inhibitory effect via […] determination of oxygen reduction using purified protein samples and ubiquinol-1 as electron donor. In this set-up, we kept the compound at a high molar excess compared to the protein. Figures 3 and 4 illustrate the screening results for cytochromes bd-I, bd-II and bo3, respectively. A comparative overview of all compounds is given in SI Table S1. […]. […] Among these compounds, AC2-11 has the strongest inhibitory effect on all three oxidases. […]. For AurC and its analogues it was reported that replacement of N–OH with an N–H group decreases the inhibitory potential only for cytochrome bo3, keeping a strong inhibitory effect on cytochrome bd[17]. Correspondingly, we observed a clear inhibition of cytochromes bd-I and bd-II with all AurD-type compounds. Regarding the long-chain derivatives AC4-11, AC2-11 and AD3-11, inhibition of cytochromes bd-I and bd-II and bo3 highlight the importance of the residue at the nitrogen group at position 1 for enzyme selectivity. […]. […] Regarding the cyclic derivatives, 7-MTHA causes only a minor inhibition of cytochrome bd-I. This effect could be due to the methoxy group in position 7 that introduces an additional polarity to the molecule. Steric hindrance as a consequence of the third ring structure is less likely, because AD5-cyclo is bulkier and reduces activity < 10% of cytochromes bd-I and bd-II.
(§2) Oxygen reductase activity was measured as oxygen consumption rate of purified protein by OX-MR Clark-type oxygen electrode linked to a PA 2000 picoammeter and to the ADC-216 AD-converter. Data recording with SensorTrace Basic 2.1 software (all Unisense, Denmark). Measurements were performed at RT in stirred 2 ml—glass vials with a total reaction volume of 600 µl. Oxygen consumption was initiated by adding 30 nM (bd-I, bo3) or 120 nM (bd-II) of the respective enzyme to the equilibrated mixture containing 20 mM NaPi (pH 8.0), 50 mM NaCl, 0.02% DDM, 5 mM Dithiothreitol (DTT) and 200 µM Ubiquinone-1 (2,3-Dimethoxy-5-methyl-6-(3-methyl-2-buten-1-yl)-1,4-benzoquinone). A 10 min equilibration period was implemented prior to enzyme addition. Inhibition experiments were performed with 250 µM of the respective compound from 20 mM stock solution in DMSO before equilibration. Data analysis and visualization via Origin Lab Pro 9.5 (Additive GmbH, Germany) Data analysis included an unpaired, two-sided t-test of two samples to check that given residual activities were sufficiently different between proteins (at significance levels p < 0.05, 0.01 or 0.001). HQNO (2-heptyl-4-quinolinol 1-oxide) was purchased from biomol GmbH, Hamburg. […]. The Ki^app value was adopted as the EC50 from the sigmoidal DoseRespFit. Further information can be found in Supporting Information Figures S2 to S5.
Dose response curves were created to rank the compounds due to their inhibition potency. Inhibitors were titrated in presence of 30nM bd-I. From Clark-type electrode monitored oxygen consumption, resulting oxygen reduction activity with 200µM Q1, reduced with 2mM DTT, was calculated as turnover in e^-/s. Turnover values were normalized, followed by a curve fitting with DoseResp Fit (1) in Origin LabPro9.5 (Additive GmbH, Germany). Data points are mean of minimum three independent measurements ± S.E.M.

cytochrome bd-II = target: T2, cytochrome bd-II (Escherichia coli, UniProt P26459); assay: Oxygen reductase activity assay (Clark-type electrode) with purified cytochrome bd-II; format: biochemical, E. coli; conditions: compound 250 µM, 200 µM ubiquinone-1, 5 mM dithiothreitol, 120 nM enzyme, RT, 100% = DMSO, mean ± S.E.M. (n=3); for remaining activity at 250 µM: read-out: Rest activity in % of control activity bd-II
T2 construct: made in house; host or cells: E. coli C43 (DE3) Δ bo3 (CLY)
T2 sequence (P26459 whole entry): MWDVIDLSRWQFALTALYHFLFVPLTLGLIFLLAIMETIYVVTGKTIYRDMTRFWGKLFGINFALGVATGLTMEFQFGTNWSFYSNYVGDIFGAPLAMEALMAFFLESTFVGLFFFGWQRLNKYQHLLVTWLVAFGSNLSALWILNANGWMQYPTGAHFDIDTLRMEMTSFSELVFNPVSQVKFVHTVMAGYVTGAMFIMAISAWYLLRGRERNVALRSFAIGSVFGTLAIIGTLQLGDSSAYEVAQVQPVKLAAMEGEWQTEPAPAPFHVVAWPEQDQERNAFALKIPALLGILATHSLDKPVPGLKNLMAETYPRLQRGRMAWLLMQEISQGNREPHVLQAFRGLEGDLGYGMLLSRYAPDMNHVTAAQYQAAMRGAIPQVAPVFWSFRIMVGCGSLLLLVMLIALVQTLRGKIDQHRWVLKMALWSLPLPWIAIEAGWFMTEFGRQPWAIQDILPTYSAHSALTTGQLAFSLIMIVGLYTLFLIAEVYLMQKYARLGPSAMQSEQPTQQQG
T2 sequence (P24244 whole entry, further chain): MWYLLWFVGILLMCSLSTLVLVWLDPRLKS
T2 sequence (P26458 whole entry, further chain): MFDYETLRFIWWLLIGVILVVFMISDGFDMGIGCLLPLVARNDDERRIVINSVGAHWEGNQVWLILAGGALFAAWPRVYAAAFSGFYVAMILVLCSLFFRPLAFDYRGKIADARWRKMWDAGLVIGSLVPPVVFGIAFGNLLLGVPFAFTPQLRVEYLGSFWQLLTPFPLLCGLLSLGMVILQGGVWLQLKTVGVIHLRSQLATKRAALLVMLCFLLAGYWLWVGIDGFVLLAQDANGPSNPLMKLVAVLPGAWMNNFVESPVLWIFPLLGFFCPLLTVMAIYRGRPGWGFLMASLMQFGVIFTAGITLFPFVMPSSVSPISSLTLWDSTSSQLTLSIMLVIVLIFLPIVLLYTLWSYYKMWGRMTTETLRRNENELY
From the text: as §1, §2

cytochrome bo3 [1] = target: T3, cytochrome bo3 (Escherichia coli, UniProt P0ABI8); assay: Oxygen reductase activity assay (Clark-type electrode) with purified cytochrome bo3; format: biochemical, E. coli; conditions: for Rest activity in % of control activity bo3 / remaining activity at 250 µM: compound 250 µM, 200 µM ubiquinone-1, 5 mM dithiothreitol, 30 nM enzyme, RT, 100% = DMSO, mean ± S.E.M. (n=3); for remaining activity at 250 µM: read-out: Rest activity in % of control activity bo3; for Ki: final enzyme concentration 30 nM, EC50 of DoseResp fit, read-out: Ki^app bo3
T3 construct: made in house; host or cells: E. coli strain GO195 with pIRHisA
T3 sequence (P0ABJ3 whole entry): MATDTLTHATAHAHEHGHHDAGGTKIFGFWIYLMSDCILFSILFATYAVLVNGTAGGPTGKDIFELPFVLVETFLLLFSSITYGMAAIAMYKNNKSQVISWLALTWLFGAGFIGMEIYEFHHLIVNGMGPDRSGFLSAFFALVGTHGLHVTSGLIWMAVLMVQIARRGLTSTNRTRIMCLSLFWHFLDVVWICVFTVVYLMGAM
T3 sequence (P0ABJ1 25-315, further chain): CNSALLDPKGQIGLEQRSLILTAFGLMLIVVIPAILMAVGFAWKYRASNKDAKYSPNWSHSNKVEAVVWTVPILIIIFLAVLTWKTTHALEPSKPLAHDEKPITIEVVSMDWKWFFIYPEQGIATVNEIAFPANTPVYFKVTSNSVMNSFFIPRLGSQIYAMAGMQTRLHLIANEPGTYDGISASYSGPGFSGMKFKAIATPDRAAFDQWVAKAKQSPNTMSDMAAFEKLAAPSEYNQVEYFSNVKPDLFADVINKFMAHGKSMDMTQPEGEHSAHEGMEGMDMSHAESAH
T3 sequence (P0ABJ6 whole entry, further chain): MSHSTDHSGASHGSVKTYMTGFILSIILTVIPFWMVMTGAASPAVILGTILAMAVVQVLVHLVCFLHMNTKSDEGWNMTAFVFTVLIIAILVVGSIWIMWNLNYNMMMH
T3 sequence (P0ABI8 whole entry): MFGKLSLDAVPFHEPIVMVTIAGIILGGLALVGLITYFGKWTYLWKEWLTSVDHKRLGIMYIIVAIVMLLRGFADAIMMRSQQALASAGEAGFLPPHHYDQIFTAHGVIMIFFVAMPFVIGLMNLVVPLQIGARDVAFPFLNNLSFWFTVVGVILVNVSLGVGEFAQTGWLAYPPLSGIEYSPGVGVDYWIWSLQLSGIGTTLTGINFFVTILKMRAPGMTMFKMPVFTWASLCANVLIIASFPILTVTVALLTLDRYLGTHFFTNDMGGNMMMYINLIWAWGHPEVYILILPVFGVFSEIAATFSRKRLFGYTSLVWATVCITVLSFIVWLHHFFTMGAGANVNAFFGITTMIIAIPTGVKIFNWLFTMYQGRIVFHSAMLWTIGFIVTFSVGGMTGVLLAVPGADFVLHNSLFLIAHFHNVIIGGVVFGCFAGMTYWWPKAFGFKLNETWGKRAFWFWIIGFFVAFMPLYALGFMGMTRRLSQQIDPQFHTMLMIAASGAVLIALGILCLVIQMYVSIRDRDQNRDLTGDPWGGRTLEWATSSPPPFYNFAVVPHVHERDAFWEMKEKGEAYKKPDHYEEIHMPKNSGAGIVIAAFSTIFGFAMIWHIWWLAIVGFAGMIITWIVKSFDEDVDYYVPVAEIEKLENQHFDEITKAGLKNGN
From the text: as §1, §2

cytochrome bd = target: cytochrome bd; parameters: method as in PMID 9880809; conditions: values in brackets, determined spectrophotometrically; read-out: Ki^app bd-I (previous data) (converted); cited from earlier work
cytochrome bo3 [2] = target: T3, cytochrome bo3; conditions: values in brackets, determined spectrophotometrically; read-out: Ki^app bo3 (previous data) (converted); cited from earlier work
[3] = tested on: cytochrome bc1 complex (complex III) from beef heart mitochondria; parameters: method as in PMID 8206232; conditions: isolated complex III; cited from earlier work
B. subtilis = tested on: B. subtilis; parameters: method as in PMID 3106289; conditions: cited from earlier work
[4] = tested on: human U-2 OS osteosarcoma cells; parameters: method as in PMID 23946854; conditions: upon treatment; cited from earlier work
[5] = tested on: multidrug efflux transporter deficient TolC strain of Escherichia coli; conditions: cited from earlier work

Compound	remaining activity at 250 µM (cytochrome bd-I) [%]	remaining activity at 250 µM (cytochrome bo3 [1]) [%]	remaining activity at 250 µM (cytochrome bd-II) [%]	also measured
2-(2-Heptyl)-3-methyl-4(1H)-quinolone [AD7-1]	–	–	–	Rest activity in % of control activity bd-I (cytochrome bd-I): 4.90 ± 1.5%; Rest activity in % of control activity bd-I (cytochrome bd-I; listed as AD7-1*): 3.46 ± 0.17%; Rest activity in % of control activity bd-II (cytochrome bd-II): 1.18 ± 0.12%; Rest activity in % of control activity bd-II (cytochrome bd-II; listed as AD7-1*): 1.71 ± 0.48%; Rest activity in % of control activity bo3 (cytochrome bo3 [1]): 63.6 ± 1.3%; Rest activity in % of control activity bo3 (cytochrome bo3 [1]; listed as AD7-1*): 47.0 ± 1.9%
CCCCCCCCCCc1c(C)c(=O)c2ccccc2n1O [AC1-10]	1.39 ± 0.19	0.626 ± 0.08	–	Ki (cytochrome bd-I): 82 ± 11 nM; Ki (cytochrome bd): 280 nM; Ki (cytochrome bo3 [2]): 13 nM
CCCCCCCCCCCc1c(CC)c(=O)c2ccccc2n1O [AC2-11]	1.09 ± 0.09	0.445 ± 0.08	0.73 ± 0.21	Ki (cytochrome bd-I): 34 ± 6 nM; Ki (cytochrome bo3 [1]): 31 ± 6 nM; Ki (cytochrome bd): 440 nM; Ki (cytochrome bo3 [2]): 46 nM
CCCCCCCCCCCc1c(CCCC)c(=O)c2ccccc2n1O [AC4-11]	1.19 ± 0.42	0.863 ± 0.29	2.14 ± 0.35	Ki (cytochrome bd-I): 106 ± 13 nM; Ki (cytochrome bd): 340 nM; Ki (cytochrome bo3 [2]): 144 nM
CCCCCCCCCCCc1cc(=O)c2ccccc2[nH]1 [AD0-11]	> 30	23	8.4 ± 0.36	Rest activity in % of control activity bo3 (cytochrome bo3 [1]): 23.3 ± 2.3%
CCCCCCCCCCCc1[nH]c2ccccc2c(=O)c1CCC [AD3-11]	0.453 ± 0.28	47.1 ± 7	1.45 ± 0.18	fold higher inhibitory potential compared to AD0-11 (cytochrome bd-I; cytochrome bd-I): 188 fold; ratio Ki^app-bo3 vs. Ki^app-bd-I (cytochrome bd-I; selectivity bd-I over bo3): around 300; inhibition at 250 µM (cytochrome bo3 [1]; at 250 µM, read-out: inhibitory effect on cytochrome bo3): ~50%; Ki (cytochrome bo3 [1]): > 100000 nM
CCCCc1c(C)[nH]c2ccccc2c1=O [AD4-1]	5.8 ± 0.39	69.7 ± 4.3	1.33 ± 0.26	–
CCCCCc1c(C)[nH]c2ccccc2c1=O [AD5-1]	4 ± 0.13	70.4 ± 1.5	1.85 ± 0.18	–
O=c1c2c([nH]c3ccccc13)CCCCC2 [AD5-cyclo]	< 10	70.5 ± 2.6	–	Rest activity in % of control activity bd-I (cytochrome bd-I): 5.67 ± 1.14%; Rest activity in % of control activity bd-II (cytochrome bd-II): 1.51 ± 0.15%
CCCCCCc1c(C)[nH]c2ccccc2c1=O [AD6-1]	3.45 ± 0.19	73.2 ± 1.7	1.3 ± 0.17	–
CCCCCCCc1c(CC)[nH]c2ccccc2c1=O [AD7-2]	1.89 ± 1.8	33.3 ± 1.4	1.4 ± 0.49	Ki^app fold lower compared to AD4-1 (cytochrome bd-I; cytochrome bd-I): 45 fold
CCCCCCCCc1c(C)[nH]c2ccccc2c1=O [AD8-1]	3.59 ± 0.11	94.6 ± 3.6	1.36 ± 0.21	increase of Ki^app value compared to AD7-2 (cytochrome bd-I; cytochrome bd-I): sixfold
CCCCCCCCCCCc1cc(=O)c2ccccc2[nH]1 [AD11-0, 2-undecylquinolone]	–	–	–	pIC50 [3]: 6.66
CC(C)=CCC/C(C)=C/CC/C(C)=C/Cc1c(C)n(O)c2ccccc2c1=O [AurC, Aurachin C]	–	–	–	minimum inhibitory concentration (B. subtilis): 0.15 µg/mL (≈ 0.395 µM)
CC(C)=CCC/C(C)=C/CC/C(C)=C/Cc1c(C)[nH]c2ccccc2c1=O [AurD, Aurachin D]	3.93 ± 0.64	30	1.62 ± 0.19	Rest activity in % of control activity bo3 (cytochrome bo3 [1]): 29.9 ± 2.4%; Ki (cytochrome bo3 [1]): > 10000 nM; minimum inhibitory concentration (B. subtilis): 0.15 µg/mL (≈ 0.413 µM); mitochondrial membrane potential reduced to [4]: 50–80%; antibacterial effect [5]: moderate antibacterial effect
Cc1cc(O)c2ccccc2n1 [Compound 2-MQ, 2-methyl-4-quinolinol, reference compound]	> 30	64.2 ± 2.6	17.8 ± 0.55	–
COc1ccc2[nH]c3c(c(=O)c2c1)CCCC3 [Compound 7-MTHA, 7-methoxy-1,3,4,10-tetrahydro-9(2H)-acridinone, reference compound]	35.7 ± 5.7	69.3 ± 1.7	9.6 ± 0.16	–
CCCCCCCc1cc(O)c2ccccc2[n+]1[O-] [HQNO, 2-heptyl-4-quinolinol 1-oxide, reference compound]	7.29 ± 0.45	4.53 ± 0.58	6.44 ± 1.3	Ki (cytochrome bd-I): 3600 ± 500 nM; Ki (cytochrome bo3 [1]): 2600 ± 400 nM
